From BindingDB's records for doi:10.7270/Q2H130G1 (Burnham Center For Chemical Genomics, 2010)

Target: T1, Alkaline phosphatase, tissue-nonspecific isozyme (Homo sapiens, UniProt P05186)
T1 sequence (P05186 whole entry): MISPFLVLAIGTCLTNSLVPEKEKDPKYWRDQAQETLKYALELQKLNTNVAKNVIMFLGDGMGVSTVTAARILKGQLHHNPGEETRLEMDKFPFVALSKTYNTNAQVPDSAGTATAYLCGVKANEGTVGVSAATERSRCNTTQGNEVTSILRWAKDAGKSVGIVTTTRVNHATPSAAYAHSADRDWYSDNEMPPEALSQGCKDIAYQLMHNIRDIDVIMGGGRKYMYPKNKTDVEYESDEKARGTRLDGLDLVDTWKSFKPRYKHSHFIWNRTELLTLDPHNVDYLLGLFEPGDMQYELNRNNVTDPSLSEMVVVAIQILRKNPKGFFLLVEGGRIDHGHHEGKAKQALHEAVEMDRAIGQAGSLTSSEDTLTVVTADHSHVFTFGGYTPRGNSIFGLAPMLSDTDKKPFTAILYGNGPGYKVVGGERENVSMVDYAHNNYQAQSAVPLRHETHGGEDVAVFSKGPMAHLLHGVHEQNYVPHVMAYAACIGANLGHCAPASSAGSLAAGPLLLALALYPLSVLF
Assay: TNAP enzyme inhibition by screening hits, dose response, selectivity assay for mouse IAP inhibitor project, biochemical, human TNAP, uHTS hits (AID 488906)

Row | IC50 [µM] | SMILES
1 | 1.53 | O=C1C=CC(C=NNC(=S)Nc2ccccc2[N+](=O)[O-])C=C1O (stereo not given) [MLS000417596]
2 | > 100 | C#CCOCCOCCOCCNc1nc(N2CCN(C(=O)CCCCCCCCCCNC(=O)[C@@H](CCSC)n3cc(CCO)nn3)CC2)nc(N2CCN(C(=O)CCCCCCCCCCNC(=O)[C@H]([C@@H](C)CC)n3cc(CCCCCN)nn3)CC2)n1 [MLS002153719]
3 | > 100 | O=C(Nn1c(O)csc1=S)C(=O)Nn1c(O)csc1=S [SMR000349781]
4 | 1.12 | O=C1C=CC(/C=C/c2nc(O)c([N+](=O)[O-])c(=O)[nH]2)C=C1O (stereo not given) [SMR000524347]

The remaining lines, values behind:

Row | SMILES | IC50 [µM]
5 | Cc1ccc(Cl)c2c1NC(=O)/C2=C1/NC(=S)NC1=O | 0.211
6 | Nc1nnc(CC(=O)N/N=C/C2C=C([N+](=O)[O-])C=C(Br)C2=O)s1 (stereo not given) [2-(5-azanyl-1,3,4-thiadiazol-2-yl)-N'-[(E)-(5-bromanyl-3-nitro-6-oxidanylidene-cyclohexa-2,4-dien-1-ylidene)methyl]ethanehydrazide] | 20.6
7 | NS(=O)(=O)c1cc(C(=O)NNC2=c3ccccc3=NC2=O)ccc1Cl [2-chloro-5-[[(2-oxoindol-3-yl)amino]carbamoyl]benzenesulfonamide] | > 100
8 | COc1cc(C=Nn2c(O)csc2=S)ccc1O [3-[[(E)-(3-methoxy-4-oxidanylidene-cyclohexa-2,5-dien-1-ylidene)methyl]amino]-2-sulfanylidene-1,3-thiazolidin-4-one] | > 100
9 | Oc1ccc(C=Nn2c(O)csc2=S)c(O)c1O [3-[[(E)-[2,3-bis(oxidanyl)-4-oxidanylidene-cyclohexa-2,5-dien-1-ylidene]methyl]amino]-2-sulfanylidene-1,3-thiazolidin-4-one] | 58.5
10 | CC1NON=C1C(=O)NN=CC1=CC(=O)C(=O)C=C1 (stereo not given) [4-Methyl-furazan-3-carboxylic acid (3,4-dihydroxy-benzylidene)-hydrazide] | 16.8
11 | Oc1ccc(CN=Nc2cc(N3CCCC3)nc(N3CCCC3)n2)cc1O [(4Z)-4-[[2-(2,6-dipyrrolidin-1-ylpyrimidin-4-yl)hydrazinyl]methylidene]-2-hydroxycyclohexa-2,5-dien-1-one] | > 100
12 | Cc1ccc(/C=C2\SC(=S)N(/N=C/C3C=C([N+](=O)[O-])C=CC3=O)C2=O)o1 (stereo not given) [(5Z)-5-[(5-methylfuran-2-yl)methylidene]-3-[[(E)-(3-nitro-6-oxocyclohexa-2,4-dien-1-ylidene)methyl]amino]-2-sulfanylidene-1,3-thiazolidin-4-one] | > 100
13 | C#CCOCCOCCOCCNc1nc(N2CCN(C(=O)CCCCCCCCCCNC(=O)[C@H]([C@@H](C)CC)n3cc(CCCCN=C(N)N)nn3)CC2)nc(N2CCN(C(=O)CCCCCCCCCCNC(=O)[C@@H]([C@H](C)O)n3cc(C)nn3)CC2)n1 [GT-RI] | 1.04
14 | C#CCOCCOCCOCCNc1nc(N2CCN(C(=O)CCCCCCCCCCNC(=O)Cn3cc(CCCCCN)nn3)CC2)nc(N2CCN(C(=O)CCCCCCCCCCNC(=O)Cn3cc(C[C@@H](C)O)nn3)CC2)n1 [KG-TG] | > 100
15 | COc1cc(C=CC(=O)CC(=O)C=Cc2ccc(O)cc2)ccc1O [demethoxycurcumin] | > 100
